This is an account of results in patent publication US20210038730A1, “PEPTIDE NANOFIBERS” (UNIVERSITY OF PORTSMOUTH HIGHER EDUCATION CORPORATION, priority 2018, published 2021).

By Papp A→B is commonly meant the apparent permeability from the apical to the basolateral side of a cell layer. A low value points to poor permeation.

The test system of series [1] is in vitro BBB model (hCMEC/D3 and SC-1800 co-culture). The experiment in a line: in vitro. On the procedure: (§1) In order to test the permeability of TPGnRH nanofibers across the blood-brain barrier (BBB), a static contact co-culture was set up according to a previous method^7. Briefly, human astrocytes (SC-1800, 25,000 cells/well) were seeded on the abluminal side of a 24-well plate Transwell polycarbonate membrane (3 μm of a pore size, Corning Star, Deeside, UK) coated with human fibronectin. Cells were allowed to attach for 3 days, and then human brain microvascular endothelial cells (hCMEC/D3, 75,000 cells/well) were seeded on the luminal side of the Transwell and co-cultured with astrocytes for five days with a daily change of the media. Transendothelial resistance was measured using EVOM voltohmmeter (World Precision Instruments, Berlin, Germany).
(§2) Transwells were washed with HBSS and immersed into HBSS (600 μL in abluminal side). […] Samples (100 μL) were collected from the abluminal side at specific time-points, and fresh HBSS (100 μL) was used to replace the volume from the abluminal compartments. […] PAX was analysed using reverse phase-HPLC with the gradient method described on Table 2. TR-TPGnRH was quantified in POLARstar Omega plate reader spectrophotometer with λexc 596 and λem 615 nm. The permeability coefficient (Papp) was determined using the equation: […]
(§3) ΔQr, is the flux of drug along time (μg mL^−1), Vr is the volume of the abluminal side (mL), A is the area of the Transwell membrane, C0 is the concentration of drug in the luminal side, and 60, the converser factor from minutes to seconds^8.

Series [2] is described as follows: Permeability across in vitro blood-brain barrier model. On the procedure: as §1, §2, §3
Series [3] relates to hCMEC/D3 endothelial cells. The experiment in a line: Cell uptake in endothelial cells (flow cytometry). It is filed as cell-based, human. The note with it: 4 hours of incubation, 50 μg mL^−1. On the procedure:
TPGnRH was labelled with Texas Red (TR) according to the manufacturer's protocol. Endothelial cells were seeded (227,000 cells/cm^2) in 24-well plates, allowed to attach for 24 hours, and then media was replaced by fresh media containing TR-TPGnRH at 50 μg mL^−1 in PBS. Cells were either incubated at 4 or 37° C. for 1 and 4 hours. At the end of a time-point, cells were washed with HBSS to remove the free nanofibers, incubated with 500 μL of TrypLE Express Enzyme and collected by centrifugation. The cell pellet was then re-suspended in PBS, and cells were analysed in BD FACS Calibur™ flow cytometer (BD Biosciences, Wiltshire, UK) acquiring at least 10,000 events. Data were analysed in FlowJo® Software 10.1. Unstained cells were used as a control in the flow cytometry settings.
A general note: Flow cytometry measures light scatter and fluorescence of single cells or particles in a stream.

The next series relates to U-87 MG cells. The experiment in a line: Cell uptake of TR-TPGnRH, U-87 MG. It is filed as cell-based, human. The procedure: (§4) The U-87 MG and SK-OV-3 cells were seeded at 20,000 cells/cm^2 in a 12-well plate (76,000 cells per well). Cells were allowed to attach overnight, and then the media was replaced by fresh media (900 μL) containing TR-TPGnRH (50 μg mL^−1 in PBS, 100 μL, pH 7.4). Subsequently, cells were either incubated at 4 or 37° C. for 1 and 4 hours. At the end of each time-point, cells were washed with HBSS twice to wash the free fibres, incubated with 500 μL TrypLE Enzyme at 37° C. for 3 minutes, and then collected by centrifugation at 1,000 rpm for 5 minutes using a C-28A centrifuge. Cells were then re-suspended in PBS (200 μL) and analysed in BD FACSCalibur™ flow cytometer acquiring at least 10,000 events. Unstained cells were used as a control in the flow cytometry settings.

In the next series the test system is SK-OV-3 cells. The series can be described thus: Cell uptake of TR-TPGnRH, SK-OV-3. It is filed as cell-based, human. The procedure: as §4

On to Texas Red [Free Texas Red], for which, in series [1], the Papp is 111.78 ± 24.30 ×10^−6 cm s^−1.
For `CCCCCCCCCCCCCCCC(=O)Oc1ccc(C[C@H](NC(=O)[C@H](CO)NC(=O)[C@H](Cc2c[nH]c3ccccc23)NC(=O)[C@H](Cc2c[nH]cn2)NC(=O)[C@H](CCC(=O)O)NS(=O)(=O)c2ccc(-c3c4cc5c6c(c4[o+]c4c7c8c(cc34)CCCN8CCC7)CCCN6CCC5)c(S(=O)(=O)[O-])c2)C(=O)NCC(=O)N[C@@H](CC(C)C)C(=O)N[C@@H](CCCNC(=N)N)C(=O)N2CCC[C@H]2C(=O)NCC(N)=O)cc1` [Texas Red-TPGnRH], the Papp A→B in series [2] amounted to 6 ×10⁻⁶ cm/s. Also, the figures for the “TR-TPGnRH+ cells” value in series [3] (4° C.) and in series [3] (37° C.) were 0.18±0.05% and 68.43±0.85%, respectively. Also, the Cell uptake in the series on U-87 MG cells (1 Hour, 4° C.) is given as 20.51 ± 3.10; with U-87 MG cells (1 Hour, 37° C.) it was 32.64 ± 5.04; in the series on U-87 MG cells (4 Hours, 4° C.) it was 52.36 ± 10.20; in the series with U-87 MG cells (4 Hours, 37° C.) it was 91.12 ± 1.11; in the series on SK-OV-3 cells (SK-OV-3, 1 Hour, 4° C.), 10.02 ± 0.52; in the series with SK-OV-3 cells (SK-OV-3, 1 Hour, 37° C.), 13.35 ± 0.53. Further, the Cell uptake is on record as 52.47 ± 3.34 with SK-OV-3 cells (SK-OV-3, 4 Hours, 4° C.) and 49.36 ± 4.66 with SK-OV-3 cells (SK-OV-3, 4 Hours, 37° C.).
